The test system of data set [1] is rat gastrointestinal obstruction model. Put plainly: Drug effect test in gastrointestinal obstruction model: intestinal fluid weight. The class given is in vivo, rats. As to conditions: for intestinal fluid weight compared to the vehicle: rats, subcutaneous 40 nmol/kg, 1 hour after administration; for Intestinal fluid weight: jejunum wet weight-dry weight, 40 μM solution 1 mL/kg subcutaneous 18 h after surgery, one hour after administration.
Source text: Anesthesia was introduced with inhalation of 2% isoflurane and laughing gas:oxygen=7:3, and this was maintained throughout the surgery. A median incision was made in the abdomen, and the jejunum at about 10 cm from the musculus suspensorius duodeni was ligated with a surgical suture. Then, the incision site was promptly sutured, and the rats were fasted until compound administration. In the sham treatment group, ligation of the jejunum was not performed, but the treatment of suturing the incision site after a median incision was made in the abdomen was performed.
(§1) Eighteen hours after the gastrointestinal obstruction surgery, this was subcutaneously administered into the dorsal cervix at a dosage of 1 mL/kg with a glass syringe and a 25 G injection needle (all from Terumo Corporation). As the vehicle group, saline without glycosylated polypeptide was similarly administered.
One hour after compound administration, a median incision was made in the abdomen under inhalation anesthesia, and 1.5 mL of blood was collected from the abdominal vena cava. Then, the ligated jejunum on the musculus suspensorius duodeni side was resected. The fluid and blood on the jejunum surface were removed with a paper towel, nerves, blood vessels, and fat attached to the jejunum was removed, this was cut into 6 cm lengths, and wet weight was measured. This was then dried at 36 degrees for 24 hours, and dry weight was measured. The intestinal fluid weight (mg) was calculated by wet weight-dry weight.

The test system is the same in data set [2]. As to the kind of experiment: Gastrointestinal obstruction model: blood parameters (amylase, LDH, CPK). Format: in vivo, rats. The settings on record: for LDH activity compared to the vehicle / amylase activity compared to the vehicle: rats, blood 1 hour after administration; for Amylase / CPK / LDH: rat gastrointestinal obstruction model, blood collected 1 hour after subcutaneous administration of 40 μM solution at 1 mL/kg, 18 hours after surgery.
Procedure: This experimental line was carried out as a test line to evaluate the promotion of intestinal fluid absorption or the secretory suppressing action, using the change in the intestinal fluid weight in the jejunum after bowel obstruction as an indicator. Moreover, blood parameters of deviation enzymes amylase (pancreas), lactate dehydrogenase (LDH, liver), and creatine phosphokinase (CPK, skeletal muscle, cardiac muscle etc.) were measured as indicators of tissue disorders.
The present test was consigned to Mitsubishi Chemical Medience Corporation and carried out. […] Anesthesia was introduced with inhalation of 2% isoflurane and laughing gas:oxygen=7:3, and this was maintained throughout the surgery. A median incision was made in the abdomen, and the jejunum at about 10 cm from the musculus suspensorius duodeni was ligated with a surgical suture. Then, the incision site was promptly sutured, and the rats were fasted until compound administration. In the sham treatment group, ligation of the jejunum was not performed, but the treatment of suturing the incision site after a median incision was made in the abdomen was performed.
as §1
One hour after compound administration, a median incision was made in the abdomen under inhalation anesthesia, and 1.5 mL of blood was collected from the abdominal vena cava.
The measuring methods employed were BG5B, UV-rate, and JSCC methods, respectively.

In data set [3] the test system is growth hormone (GH) production. As to the kind of experiment: GH production suppression test with rats.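 As to all read-outs here: plasma GH measured by EIA in blood drawn 5 min after intravenous GRF stimulus, given 1 h after compound dosing, compared against saline-treated vehicle rats.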 Format: in vivo. The settings on record: for GH production suppression activity: administration of 10 or 100 nmol/kg.
Procedure: This experimental line was carried out as a test line that can evaluate the pharmacological action of the glycosylated form on SSTR and its residence in blood after administration, with blood GH production amount as an indicator.
Moreover, GRF (GH releasing hormone, Growth hormone releasing factor) was used as the GH release enhancer. […] As heparin employed as the anticoagulant when collecting blood, Japanese Pharmacopeia heparin sodium injectable solution (Lot. B084, from Mochida Pharmaceutical Co., Ltd.) was used directly as stock solution.
As the control group, saline without glycosylated polypeptide was similarly administered (vehicle group). […] One hour after administration of the glycosylated form, i.e. after 50 minutes or more had passed under anesthesia, GRF was administered as the GH release enhancer to the tail vain at a dosage of 1 mL/kg with a glass syringe and an injection needle. Five minutes after administration of GRF, blood was collected from the rat cervical vein with a glass syringe containing heparin and an injection needle. 0.4 mL of the collected blood was left on ice for 20 minutes or more, then centrifuged (1,870×g, 4° C., 10 minutes), and 100 μL of the supernatant was taken as the plasma sample. As blank plasma, plasma obtained by similarly treating the blood collected from untreated rat cervical vein was employed. Plasma samples were frozen in storage until employed for measurement.
Measurement of GH concentration in the plasma sample obtained in the above 89-2 was performed with rat Growth Hormone EIA kit from SPI-Bio (SPI-Bio, A05104). The plasma sample was diluted with the assay buffer supplied in the EIA kit to 20, 100, and 500-folds as measurement samples. […] By multiplying the results obtained and the dilution ratio, the GH concentration was calculated.
Data set [4] concerns SSTR1-SSTR5. As to the kind of experiment: Competitive binding assay, statements over all receptors. Also noted: species or system Human. As to conditions: Example 69-1, range over SSTR1-SSTR5.
Data set [5] in a line: Pharmacokinetics test with rats (intravenous and subcutaneous administration).
Procedure: 0.2 mL of the collected blood was promptly mixed with 0.2 mL of the aprotinin-containing EDTA-PBS solution prepared in the above 70-1, and left on ice for 30 minutes or more. […] As blank plasma, plasma obtained by similarly treating the blood collected from untreated rat cervical vein was employed. Plasma samples were frozen in storage until employed for measurement.
The standard solution for creating a standard curve was prepared as follows. First, the blank plasma obtained in the above 70-2 was diluted with the assay buffer supplied in the EIA kit similarly to the plasma sample, and this was used as the assay buffer for standard solution preparation (for example, when diluting the plasma sample to 100-fold, 1/100 amount of blank plasma was added to the assay buffer supplied in the EIA kit, and this was used as the assay buffer for standard solution preparation).
Moreover, the predicted initial concentration (C0) was determined by the extrapolation method for intravenous administration, t1/2 and MRT were calculated, and the maximum plasma concentration (Cmax) was determined from the actual value for subcutaneous administration.
Moreover, the parameters obtained were employed to calculate bioavailability from the following mathematical formula. BA (%)=(AUC(sc)/Dose(sc))/(AUC(iv)/Dose(iv))
AUC(sc): AUC for subcutaneous administration (min·nM)
Dose(sc): Administration dose for subcutaneous administration (nmol/kg)
AUC(iv): AUC for intravenous administration (min·nM)
Dose(iv): Administration dose for intravenous administration (nmol/kg)
[6] abbreviates: Table 8, plasma GH, dose 1 nmol/kg.
The mark [7] stands for this setting: Table 8, plasma GH, dose 3 nmol/kg.
Where [8] appears, read: Table 8, plasma GH, dose 30 nmol/kg.
[9] abbreviates: Table 8, plasma GH, dose 10 nmol/kg.
Where [10] appears, read: intravenous administration, Table 5A.
Where [11] appears, read: subcutaneous administration, Table 5A.
[12] abbreviates: Table 7, plasma GH, dose 1 nmol/kg subcutaneous, GRF 1 hour after administration, blood 5 min after GRF.
The mark [13] stands for this setting: Table 7, plasma GH, dose 10 nmol/kg subcutaneous, GRF 1 hour after administration, blood 5 min after GRF.
Setting [14] is: Table 8, plasma GH, dose 100 nmol/kg.

By AUC is commonly meant the area under the concentration-time curve, a measure of exposure. A low value points to less exposure. As a reminder, the MRT is a mean duration of stay, worked out from the concentration-time curve. What is called Cmax is the maximum level reached in the sampled fluid or tissue.

As to `C[C@@H](O)[C@@H]1NC(=O)[C@H](CCCCN)NC(=O)[C@@H](Cc2c[nH]c3ccccc23)NC(=O)[C@H](Cc2ccccc2)NC(=O)[C@@H](NC(=O)[C@H](N)Cc2ccccc2)CSSC[C@@H](C(=O)N[C@H](CO)[C@@H](C)O)NC1=O` [Octreotide, reference compound], in data set [1], the “intestinal fluid weight compared to the vehicle” value is on record as “confirmed to have this effect”. Further, in data set [2], the “LDH activity compared to the vehicle” value is “low value compared to the vehicle” and the “amylase activity compared to the vehicle” value was “equivalent to the vehicle”.
With A9C(disialo)-SRIF28 [Example 3], the “GH production suppression effect” value in data set [3] (rats, subcutaneous, 10 nmol/kg) is reported as 95-99%.
Consider C(disialo)-R-K-SRIF14 [Example 18], for which the “affinity towards SSTR1-SSTR5, folds higher than S1C(disialo)-SRIF28” value in data set [4] is recorded as 0.7-2.4 folds. Further, the “GH” value in data set [3] (setting [6]) stood at 912 ng/mL. For the same molecule, the “GH” value in data set [3] (setting [7]) is recorded as 291 ng/mL. Moreover, the “GH” value in data set [3] (setting [8]) is 12 ng/mL. In data set [3] (rats, subcutaneous, 10 nmol/kg), the “GH production suppression effect” value is 95-99%. For the same molecule, in data set [1], the “Intestinal fluid weight” value worked out at 584 ± 95 mg and the “intestinal fluid weight compared to the vehicle” value is “increase in the intestinal fluid weight compared to the vehicle”. Also, in data set [2], the Amylase is listed as 985 ± 238 IU/L, the CPK is 415 ± 137 IU/L, the LDH amounted to 228 ± 155 IU/L and the “LDH activity compared to the vehicle” value is reported as “low value compared to the vehicle”. In data set [2], the “amylase activity compared to the vehicle” value was “low value compared to the vehicle”.
For the molecule E12C(disialo)-SRIF28 [Example 4], the “GH production suppression effect” value in data set [3] (rats, subcutaneous, 10 nmol/kg) is reported as 95-99%.
For the molecule K14C(disialo)-SRIF28 [Example 6], the “GH production suppression activity” value in data set [3] (rats) is “showed GH production suppression activity”.
For N5C(disialo)-SRIF28 [Example 2], the “GH production suppression effect” value in data set [3] (rats, subcutaneous, 10 nmol/kg) is listed as 95-99%.
Turning to R13C(disialo)-SRIF28 [Example 5], the “GH production suppression activity” value in data set [3] (rats) is reported as “showed GH production suppression activity”.
Take S1-2C(asialo)-SRIF28 [Example 28]: the “affinity towards SSTR1-SSTR5, folds higher than S1C(disialo)-SRIF28” value in data set [4] is given as 1.7-2.9 folds. For the same molecule, in data set [3] (rats, subcutaneous, 10 nmol/kg), the “GH production suppression effect” value is recorded as 70-99%. Also, the “intestinal fluid weight compared to the vehicle” value in data set [1] is on record as “increase in the intestinal fluid weight compared to the vehicle”.
Turning to S1-5C(disialo)-SRIF28 [Example 34], the “GH” value in data set [3] (setting [9]) is 842 ng/mL. In addition, the “GH production suppression activity” value in data set [3] (rats) was “showed GH production suppression activity”. In data set [5] (setting [10]), this molecule displayed an AUC of 6016 ± 873 nM·min, a C0 of 752 ± 81.4 nM, an MRT of 0.817 ± 0.101 h and a t1/2 of 1.66 ± 0.233 h. The “AUC for subcutaneous administration, folds of S1C(disialo)-SRIF28” value in data set [5] (subcutaneous) is 1.8-3.1 folds. Besides, in data set [5] (setting [11]), the AUC is 5524 ± 633 nM·min, the Cmax was 13.5 ± 2.85 nM, the MRT stood at 6.48 ± 0.833 h and the t1/2 turned out to be 4.52 ± 0.645 h. Besides, the “bioavailability (BA)” value in data set [5] (subcutaneous vs intravenous AUC) is on record as 92%. The same molecule displayed a BA in data set [5] (subcutaneous vs intravenous administration, Table 5A) of 92%.
As to S1C(asialo)-SRIF28 [Example 27], in data set [3] (rats, subcutaneous, 10 nmol/kg), the “GH production suppression effect” value is given as 70-99%.
On the same count and under the same terms, as for S1C(disialo(Bn))-SRIF28 [Example 61], the figure is 95-99%; as for S1C(disialo(amide))-SRIF28 [Example 60], 70-99%; as for “S1C(disialo(aminoethylamide))-SRIF28 [Example 59]”, 70-99%.
On the same count and under the same terms, next, “S1C(disialo)-D-Trp22-SRIF28 [Example 15]”: 95-99%.
As to S1C(disialo)-SRIF28 [Example 1], the “GH” value in data set [3] (setting [12]) was 490 ng/mL; in data set [3] (setting [13]), 17.1 ng/mL; in data set [3] (setting [6]), 787 ng/mL; in data set [3] (setting [7]) it was 182 ng/mL; in data set [3] (setting [9]), 15 ng/mL; in data set [3] (setting [8]) it was 8 ng/mL. The “GH” value in data set [3] (setting [14]) was determined as 7 ng/mL. The “dose from which GH production was suppressed” value in data set [3] (rats, subcutaneous) is recorded as ≥ 1 nmol/kg. For the same molecule, in data set [3] (rats, subcutaneous, 3-10 nmol/kg), the “GH production suppression effect” value is given as 82-99%. Also, the “Intestinal fluid weight” value in data set [1] is reported as 630 ± 83 mg. Also, the “intestinal fluid weight compared to the vehicle” value in data set [1] is recorded as “increase in the intestinal fluid weight compared to the vehicle”. Also, in data set [2], the Amylase was determined as 1164 ± 224 IU/L. The same molecule gave a CPK in data set [2] of 455 ± 202 IU/L. The molecule also yielded an LDH in data set [2] of 338 ± 97 IU/L. For the same molecule, in data set [2], the “amylase activity compared to the vehicle” value was “low value compared to the vehicle”.
For “S1C(disialo)•N5C(disialo)-SRIF28 [Example 21]”, the “GH” value in data set [3] (setting [12]) was determined as 776 ng/mL; in data set [3] (setting [13]), 181 ng/mL; in data set [3] (setting [6]), 776 ng/mL; in data set [3] (setting [9]), 181 ng/mL. In addition, in data set [3] (rats), the “GH production suppression activity” value is on record as “showed GH production suppression activity”.
For the molecule “S1C(disialo)•N5C(disialo)•A9C(disialo)-SRIF28 [Example 25]”, the “GH” value in data set [3] (setting [13]) came out at 833 ng/mL; in data set [3] (Table 7, plasma GH, dose 100 nmol/kg subcutaneous, GRF 1 hour after administration, blood 5 min after GRF), 151 ng/mL; in data set [3] (setting [14]), 151 ng/mL. Further, in data set [3] (rats), the “GH production suppression activity” value is “showed GH production suppression activity”.
Consider S1C(monosialo)-SRIF28 [Example 26], for which the “GH production suppression effect” value in data set [3] (rats, subcutaneous, 10 nmol/kg) is listed as 70-99%.

(Values after US9802996B2, “Glycosylated polypeptide and drug composition containing said polypeptide” (Glytech, Inc., priority 2011, dated 2017).)
